Results on 7 compounds are retold here after patent US7338778B2, “Luminescent method for determining cell oxygen consumption” (Becton, Dickinson and Company, priority 1991, dated 2008).

Bounds are passed on as bounds.

Experiment [1] concerns E. coli (ATCC #25922). In words: Effect of antibiotics on oxygen consumption of E. coli, Ru(BiPy)3Cl2 indicator tray (Example 9). Particulars: all concentrations (0.5 to 8 ug/ml), 4 hours. It is filed as cell-based. The procedure:
A 96 well Microtiter tray was produced essentially as in Example 1, except that tris-(2,2′ bipyridyl)-ruthenium (II) chloride hexahydrate (Aldrich Chemical Company, Milwaukee, Wis.) [Ru(BiPy)3Cl2] was substituted for Ru(DPP)3Cl2 in the silicone mixture. A second tray containing 9,10-diphenyl anthracene (DPA) was also prepared. All wells were charged with 150 ul of 1×10^7 CFU/ml E. coli (ATCC #25922) in broth. Table 3 lists the results at 0, 1, 2, 3, and 4 hours after addition of organisms.
(§1) A 0.5 McFarland suspension of E. coli (ATCC #25922) in Broth A (see Example 1) was prepared using an A-Just nephelometer. […] The trays were incubated at 37° C. for 4 hours and their fluorescence measured in a Fluoroskan II fluorometer.

Experiment [2] has as its system E. coli (ATCC #25922). As to the kind of experiment: Effect of antibiotics on oxygen consumption of E. coli, DPA indicator tray (Example 10). Particulars: all concentrations (0.5 to 8 ug/ml), 4 hours. It is filed as cell-based.
Experiment [3] deals with E. coli (ATCC #25922). In words: Effect of antibiotics on E. coli, Ru(DPP)3Cl2 indicator tray (Example 8). It is filed as cell-based. Particulars: all concentrations (0.5 to 8 ug/ml), 4 hours. The procedure: as §1
The fluorescent compound tris 4,7-diphenyl-1,10-phenanthroline ruthenium (II) chloride (Ru(DPP)3Cl2) was synthesized using the procedure of Watts and Crosby (J. Am.Chem. Soc. 93, 3184(1971)). A total of 3.6 mg of the compound was dissolved in 2.0 ml dimethyl sulfoxide (D-5879, Sigma Chemical, St. Louis, Mo.) and the resultant solution was then added slowly, with stirring, to 1300 ml silicone rubber forming solution (Water Based Emulsion #3-5024, Dow Corning, Midland, Mich.). A 35 microliter aliquot of the mixture was subsequently dispensed into each well of a 96 well, flat bottom, white microtiter tray (#011-010-7901, Dynatech, Chantilly, Va.), and the system was subsequently cured overnight in a low humidity (less than 25% RH), 60° C. incubator. After curing, the trays were washed by either soaking or by filling and emptying each well several times with each of the following reagents; a) absolute ethanol, b) 0.1 M phosphate buffer pH 7.2, c) hot distilled water (about 45° C.) and d) ambient temperature distilled water.

The test system of experiment [4] is HL60 cells. In words: Cytotoxicity assay in oxygen sensor plates. It is filed as cell-based. Particulars: Homo sapiens, read-out: IC50 O2 Sensor. Here is the method:
Oxygen sensor plates were prepared by the general methods described herein. Falcon 1177 polystyrene 96 well U-bottom plates (BD Labware) were used for all experiments. The fluorescent dye Ru(DPP)3Cl2 was adsorbed to silica gel by rotary evaporation of ethanolic solutions of the dye with the silica gel. The adsorbed dye-silica and a moisture-cure clear silicone were mixed manually and immediately applied to plate wells with approximately 17 uL silicone per well. These were cured for 2-3 days in a controlled humidity incubator.
All data was obtained with a BMG Polarstar fluorimeter at 37° C. using the bottom plate reading configuration. The bandpass filters were 465 nm for excitation and 590 nm for emission. For the experiments with […]®, a Cytofluor 4000 fluorometer was used with a 485 nm excitation filter and a 580 nm emission filter. Data was read at selected time intervals. Normalized fluorescence data was generally obtained by dividing well values at selected time points by the same well's initial reading with only media or buffer present prior to adding cells.
Cells used for cytotoxicity and quantitation experiments (HL60, U937; ATCC) were grown in tissue culture media recommended by the supplier (RPMI; Gibco and ATCC, respectively). The media was supplemented with either 20% fetal bovine serum (Hyclone) for the HL60 cells or 10% FBS for the U937 cells, with the addition of penicillin, streptomycin and fungizone (Gibco) to prevent microbial contamination. Cells were maintained in a tissue culture incubator (37° C., 5% CO2, 95% humidity) during all experiments between readings.
HL60 cells (human promyelocytic leukemia cell line, ATCC #45500) were grown in tissue culture media recommended by the supplier (RPMI; Gibco), supplemented with 20% fetal bovine serum, heat inactivated at 50° C. for thirty minutes with the addition of penicillin, streptomycin and fungizone (Gibco) to prevent microbial contamination. Cells were maintained in tissue culture incubator (37° C., 5% CO2, 95% humidity) during all experiments. Fluorescence of the oxygen sensor was read on a Polarstar™ fluorometer (BMG), using 465 nm excitation and 590 nm emission filters.
100 uL of tissue culture media was aliquoted into the wells of the Oxygen sensor plate and plate was allowed to equilibrate in the tissue culture incubator for 1 hour prior to taking the initial reading. This reading was used to normalize all subsequent readings to account for well to well variability. Cells were resuspended in fresh media at 960,000 cells/mi. Serial 1:2 dilution of this stock was performed and 100 uL of each dilution was alliquoted across the length of the plate in replicates of 12 (rows B-H), with final cell/well number from 1,500 to 96,000. In row A, 100 uL of tissue culture media was alliquoted into the wells in lieu of cells (no-cells control). Fluorescence measurements were taken every 24 hours over 5 days. The actual number of cells present was counted with a hemocytometer by sampling the parallel well (same seeding cell number). Mean fluorescence from 5 wells per data point (n=5) was plotted against the counted cell number (FIG. 10). Error bars are standard deviation of the mean.
The experiment was performed as described in Example 18, with the following exceptions. Serial dilutions of vinblastine were prepared at twice the final concentration (100 nM to 0.1 nM) in tissue culture media.100 uL of the drug dilution in tissue culture media was aliquoted across the width of the plate in replicates of five, reserving one column for no-drug (media only) control. After an initial reading, a constant number of cells (200,000/well) in 100 uL media were added to each well of rows A-E of the oxygen sensor plate, reserving rows F-H for no-cells control. Fluorescence was read at the indicated times. Mean fluorescence from 5 wells per data point (n=5) was plotted against vinblastine concentration (FIG. 12).

The subject of experiment [5] is HL60 cells. In words: Cytotoxicity assay by MTT. Format: cell-based. Particulars: Homo sapiens, read-out: IC50 MTT. The procedure:
In parallel with the oxygen sensor assays, MTT assays were performed using a Cell Titer Kit™ (Promega), as in Example 20, with the following exceptions. For each time point (corresponding to oxygen sensor assay time point), one flat-bottom 96 well microtiter plate (Falcon) was used. 50 uL of drug dilution in tissue culture media was used for initial reading and cells were suspended in 50 uL media, to the final volume of 100 uL. At indicated time points, 10 uL of MTT reagent was added per well for 1 hour, after which 100 uL of the stop/lysis buffer was added. Plates were sealed with Parafilm™ and cell lysis occurred overnight. Absorbance (570 nm corrected by absorbance at 750 nm) was read using a Thermomax Microplate Reader (Molecular Devices). Mean absorbance from 5 wells per data point, with standard deviation as error bars, was plotted against vinblastine concentration (FIG. 13).
These experiments was performed as described in Example 20, with the exception that appropriate dilutions of the above reagents were substituted for vinblastine: 0.01 nM to 10000 nM methotrexate, 0.00001 to 10 mM sodium azide, and 2 to 2000 uM SDS respectively.

Experiment [6] concerns Pseudomonas aeruginosa (ATCC #10145). Particulars: 1.5×10^8 CFU/ml, 37° C., times less than two hours. The procedure: A suspension containing about 3×10^8 CFU/ml, of Pseudomonas aeruginosa (ATCC #10145) in Broth A was prepared using an A-Just nephelometer. A total of 150 ul of the suspension was placed in each well of the indicator trays prepared as in Example 1; these suspensions were then diluted with solutions of phenol or copper sulfate (which are deleterious to microbial growth) to a final concentration of 1.5×10^8 CFU/ml. The trays were incubated at 37° C. and their fluorescence measured in a Fluoroskan II at 10 minute intervals.

Turning to `O=C(O)c1cn(C2CC2)c2cc(N3CCNCC3)c(F)cc2c1=O` [Ciprofloxacin, ciprofloxacin], the “susceptibility of E. coli by fluorescence counts” value with E. coli (ATCC #25922) [1], in the experiment with E. coli (ATCC #25922) [2] and with E. coli (ATCC #25922) [3] was “sensitive” in each case.
In the case of `CN(Cc1cnc2nc(N)nc(N)c2n1)c1ccc(C(=O)N[C@@H](CCC(=O)O)C(=O)O)cc1` [Methotrexate, methotrexate], the IC50 (usually the point on the concentration scale where inhibition reaches its midpoint) with HL60 cells [4] (HL-60, HL60 cells, 96 hours) is 19 nM; in the experiment on HL60 cells [4] (HL-60, HL60 cells, 120 hours), 12 nM; with HL60 cells [5] (HL-60, HL60 cells, 120 hours) it was 14 nM.
In the case of `CCCCCCCCCCCCOS(=O)(=O)[O-].[Na+]` [SDS, Sodium Dodecyl Sulfate], the IC50 with HL60 cells [4] (HL-60, HL60 cells, 24 hours) is 340000 nM; in the experiment on HL60 cells [4] (HL-60, HL60 cells, 48 hours) it was 300000 nM; with HL60 cells [4] (HL-60, HL60 cells, 72 hours), 300000 nM; in the experiment on HL60 cells [5] (HL-60, HL60 cells, 24 hours) it was 500000 nM; in the experiment on HL60 cells [5] (HL-60, HL60 cells, 48 hours) it was 440000 nM; in the experiment on HL60 cells [5] (HL-60, HL60 cells, 72 hours), 430000 nM.
Regarding `[N-]=[N+]=[N-]` [Sodium Azide, sodium azide], the IC50 in the experiment with HL60 cells [4] (HL-60, 48 h) is 13000 nM; in the experiment on HL60 cells [4] (HL-60, 72 h) it was 13000 nM; with HL60 cells [4] (HL-60, 96 h), 9000 nM; in the experiment with HL60 cells [4] (HL-60, 120 h), 5800 nM; in the experiment with HL60 cells [5] (HL-60, 48 h) it was 25000 nM; in the experiment on HL60 cells [5] (HL-60, 72 h), 25000 nM. Moreover, the IC50 in the experiment with HL60 cells [5] (HL-60, 96 h) was determined as 3000 nM; in the experiment with HL60 cells [5] (HL-60, 120 h) it was 1600 nM.
Regarding `CC[C@]1(O)C[C@@H]2CN(CCc3c([nH]c4ccccc34)[C@@](C(=O)OC)(c3cc4c(cc3OC)N(C)[C@H]3[C@@](O)(C(=O)OC)[C@H](OC(C)=O)[C@]5(CC)C=CCN6CC[C@]43[C@@H]65)C2)C1` [Vinblastine, vinblastine], the IC50 in the experiment with HL60 cells [4] (HL-60, HL60 cells, 48 hours) came to 11 nM; in the experiment with HL60 cells [4] (HL-60, HL60 cells, 72 hours), 11 nM; in the experiment with HL60 cells [4] (HL-60, HL60 cells, 96 hours) it was 9 nM; in the experiment with HL60 cells [4] (HL-60, HL60 cells, 120 hours), 9 nM; in the experiment with HL60 cells [5] (HL-60, HL60 cells, 48 hours), 9 nM; in the experiment on HL60 cells [5] (HL-60, HL60 cells, 72 hours), 8 nM. For the same compound, the IC50 in the experiment with HL60 cells [5] (HL-60, HL60 cells, 96 hours) turned out to be 7 nM; in the experiment on HL60 cells [5] (HL-60, HL60 cells, 120 hours) it was 6.4 nM.
In the case of `O=S(=O)([O-])[O-].[Cu+2]` [copper sulfate], in experiment [6], the “concentration at which wells had no increase in fluorescence signal (absence of actively metabolizing organisms)” value is “greater than 500 mg/liter”.
Turning to `Oc1ccccc1` [phenol], the “concentration at which wells had no increase in fluorescence signal (absence of actively metabolizing organisms)” value in experiment [6] is at least 1 gram/liter.
